One data set addresses T1, STS activity in PBMCs (Homo sapiens, UniProt P08842).
T1 construct: Pharmacodynamic properties were investigated by assessment of the STS activity in PBMCs; endogenous in cells; host or cells: peripheral blood mononuclear cells (PBMCs) of dosed women
T1 sequence (P08842 22-583): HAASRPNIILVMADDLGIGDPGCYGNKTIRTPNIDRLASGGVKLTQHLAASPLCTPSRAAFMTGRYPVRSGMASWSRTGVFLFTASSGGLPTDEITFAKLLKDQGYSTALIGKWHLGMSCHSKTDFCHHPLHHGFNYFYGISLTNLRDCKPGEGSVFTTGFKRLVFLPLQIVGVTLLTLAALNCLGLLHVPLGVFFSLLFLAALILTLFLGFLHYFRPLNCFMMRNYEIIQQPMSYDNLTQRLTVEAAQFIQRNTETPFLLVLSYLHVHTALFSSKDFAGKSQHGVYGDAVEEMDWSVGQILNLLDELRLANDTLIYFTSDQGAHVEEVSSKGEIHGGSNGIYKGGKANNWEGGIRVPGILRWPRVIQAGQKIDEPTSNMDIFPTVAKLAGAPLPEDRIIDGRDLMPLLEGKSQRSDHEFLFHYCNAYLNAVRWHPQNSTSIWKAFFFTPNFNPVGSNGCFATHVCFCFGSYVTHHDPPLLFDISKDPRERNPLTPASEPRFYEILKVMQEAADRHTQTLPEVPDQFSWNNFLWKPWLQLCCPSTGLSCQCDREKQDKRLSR
Description: STS activity in PBMCs, Example 2 (LC-MS/MS). The data set is classed as in vivo. The note with it: E2MATE 4 mg weekly and/or NETA 10 mg daily for 4 weeks.

For data set [1], the target named is T2, Steroid Sulfatase in endometrium (Homo sapiens, UniProt P08842).
T2 construct: from tissue; host or cells: endometrium (biopsies) of dosed women
T2 sequence (P08842 22-583): T1 sequence (P08842 22-583)
Kind of data set: STS activity in endometrium, Example 2 (LC-MS/MS). The data set is classed as in vivo. The note with it: E2MATE 4 mg weekly and/or NETA 10 mg daily for 4 weeks.
Description: (§1) STS activity was determined by spiking specimens with labelled E1-S and by measuring its conversion to E1 per gram protein under standardized incubation conditions using LC-MS/MS. Protein concentration was evaluated with a validated colorimetric assay (Bradford method).

The subject of a further data set is E2 and P4; T and D4A. Kind of data set: Hormone profiles (E2, P4, T, D4A), Example 2. The data set is classed as in vivo, human. Here is the method:
Hormone profiles were determined as described in Example 1.

Data set [2] in a line: Safety, tolerability and post-treatment menstruation cycles, Example 2. The note with it: follow-up, ultrasound. From the text:
Menstruation cycle length was not influenced by the treatment. […] Sizes of right and left ovary differed slightly for each subject, but no clinically relevant changes were identified by the gynaecologists.

For data set [3], the target named is T3, STS (Homo sapiens, UniProt P08842).
T3 sequence (P08842 22-583): T1 sequence (P08842 22-583)
The note with it: cited from earlier work.

The target of data set [4] is T3, STS. The note with it: cited from earlier work. The source holds these as a separate data set.

Description for STS activity in PBMCs: as §1

For the molecule `C#C[C@]1(OC(C)=O)CC[C@H]2[C@@H]3CCC4=CC(=O)CC[C@@H]4[C@H]3CC[C@@]21C` [NETA, norethindrone (norethisterone) acetate, reference compound], at STS activity in PBMCs (Day 4), the “mean percentage inhibition of STS activity in PBMCs” value is reported as 12%. In addition, the “average inhibition of STS activity in PBMCs” value on STS activity in PBMCs stood at 4%. In addition, in data set [1], the “AVG [%] average inhibition of Steroid Sulfatase in endometrium (average effect over time (AUC))” value is 14.9 (27.0) % and the “Emax [%] maximal inhibition of Steroid Sulfatase in endometrium” value is listed as 46.7 (42.8) %. Besides, the “mean concentration-time profiles in E2 and P4” value in the data set with E2 and P4; T and D4A (first cycle up to Day 29, normal increase on Day 43) is listed as “suppressed”. In the data set with E2 and P4; T and D4A (multiple dose administration), the “mean concentration-time profiles for T and D4A” value is given as “No relevant differences”. Besides, the ovarian size entry in data set [2] is listed as “no apparent effect”.
Turning to `C[C@]12CCC3c4ccc(OS(N)(=O)=O)cc4CCC3C1CCC2=O` (stereo partly drawn) [EMATE, Estrone-3-o-sulfamate], the STS inhibition result at STS [3] is “active STS inhibitors”.
In the case of `NS(=O)(=O)Oc1ccc2c3c(c(=O)oc2c1)CCCCC3`, on STS [4], the “blocking STS activity in both eutopic and ectopic tissues” value is “effective in blocking STS activity”.

The values above are taken from US20150065470A1, “Steroid Sulfatase Inhibitor Regimen for the Treatment of Endometriosis” (priority 2012, published 2015).
